Measured values published in article PMC9718795, “Caffeic acid N-[3,5-bis(trifluoromethyl)phenyl] amide as a non-steroidal inhibitor for steroid 5α-reductase type 1 using a human keratinocyte cell-based assay and molecular dynamics” (Scientific Reports, 2022).

Key:
[1] = In vitro cytotoxic MTT assay against HaCaT cells; type: cell-based, human; settings: human, HaCaT cells (human keratinocytes), read-out: Cytotoxicity IC50 against HaCaTs
Description: The cytotoxicity of caffeic acid and its amide derivatives were evaluated with two cell lines, human keratinocyte (HaCaT) and DP cells, using the common cell viability assay with MTT. HaCaT and DP cells were seeded at 1 × 10^4 cell/well in 96-well plates in a complete DMEM medium, incubated overnight, and treated with test compounds at 0–50 µM for 24 h. The stock solutions of all the test compounds were prepared in DMSO. Each compound was serially diluted in DMEM to achieve concentrations at 0.5–50 µM; DMEM was used as the negative control. After 24 h of treatment, the culture medium was removed, and cell viability was determined by adding 100 µL of 0.5 mg/mL MTT at 37 °C in darkness for 3 h. After removing the MTT solution, 100 µL of DMSO was added to each well to dissolve the purple formazan crystals. The absorbance was measured at 570 nm using a microplate reader, and the IC50 value was calculated. Each experiment was performed in triplicates.

[2] = Cell viability (MTT) run in parallel with the HaCaT-based SRD5A1 inhibitory assay; parameters: species or system human; settings: human, HaCaT cells, HaCaT, 24 h
HaCaT cells = assay: as above; parameters: species or system human; settings: HaCaT

O=C(C=Cc1ccc(O)c(O)c1)Nc1cc(C(F)(F)F)cc(C(F)(F)F)c1 [Compound 4, 3-(3,4-dihydroxyphenyl)-N-[3,5-bis (trifluoromethyl)phenyl]-2-propenamide]
IC50 at 24 h [1]: 30 ± 8.69 µM
viability at 24 h, 1 µM ([2]; compound 1.0 µM, read-out: % Cell viability ± SD): 88%
viability at 24 h, 5 µM ([2]; compound 5 µM, read-out: Viability of treated cells): < 80%
Cytotoxicity between control and treatment groups (HaCaT cells; 0.2, 0.5, 1 and 2.5 µM): no significant cytotoxicity
% Cell viability ± SD (HaCaT cells; compound 1.0 µM, 24 h, 1 µM): 87.85 ± 1.13%
